According to patent US6797699B1, “Neuroprotective agents” (University of Southampton, priority 1997, dated 2004):
Marks after values point to notes of the source that are not given here.

Columns and labels:
[1] = test system: CA1 pyramidal cell layer of organotypic hippocampal slice cultures; assay: Hypoxic neuronal damage in organotypic hippocampal slice cultures (propidium iodide fluorescence); type: cell-based, Wistar rat; settings: 300 μM for 24 hours
[2] = test system: CA1 pyramidal cell layer of organotypic hippocampal slice cultures; assay: as above; type: cell-based, Wistar rat; settings: for neuroprotective effect (in words): 300 μM added 30 minutes prior to hypoxia, during hypoxia and the 24 hour recovery period
Method: Hypoxic neuronal damage was studied using organotypic hippocampal slice cultures [Pringle A. K. et al. (1996 Stroke 27 2124-2130)].
Cultures were prepared according to the method of Stoppini et al (1991 J. Neurosci. Meth. 37 173-182) from 8-10 day old Wistar rat pups (Bioresources Unit, University of Southampton). Cultures were maintained in vitro for 14 days (37° C., 5% CO2) during which the medium (50% minimum essential medium (MEM), 25% Hank's balanced salt solution (HBSS), 25% heat-inactivated horse serum, supplemented with 1 mM glutamine, 5 mg/ml glucose and 1.5% fungizone) was changed every 3 days. Hypoxia was induced by replacing culture medium with serum-free (SF) medium (75% MEM, 25% HBSS, 1 mM glutamine, 5 mg/ml glucose, 1.5% fungizone) saturated with 95% N2/5% CO2 (and thus oxygen-free), and placing cultures in an air-tight chamber in which the atmosphere was also saturated with N2/CO2. After 180 minutes hypoxia, cultures were replated in normoxic SF medium and replaced in the incubator for 24 hours. Compounds were added to cultures either pre-, during and post-hypoxia (herein abbreviated to “pdp”) or just in the post-hypoxic recovery period (“post”) [Johnson, T. D. (1996 Trends Pharmacol. Sci. 22-27)]. Cell damage was evaluated using the fluorescent exclusion dye propidium iodide (PI, 5 μg/ml) which is normally excluded from healthy cells, but enters cells with damaged plasma membranes and becomes highly fluorescent when bound to DNA. Neuronal cell damage was quantified using the “NIH Image 1.55” software (written by Wayne Rasband at the U.S. National Institutes for Health and available from the internet by anonymous ftp from zippy.nimh.nih.gov). Briefly, the area of the CA1, CA3 and dentate gyrus (DG) cell layers was measured from a transmission image. 24 hours after the commencement of hypoxia, a fluorescence image was captured using a standard Leica inverted fluorescence microscope fitted with a rhodamine filter set. The area of PI fluorescence above background in the neuronal cell layers was determined using the density slice function of Image. Cellular damage is expressed as the percentage area of the cell body layers in which PI fluorescence was detectable. After imaging, cultures were fixed overnight in 4% paraformaldehyde and stained with thionin.
Data are expressed as the mean±sem. Data from the non-drug groups was pooled before analysis. Statistical significance was determined using one-way analysis of variance (ANOVA) followed by post-hoc non-paired Student's t-tests. As only cells within the CA1 region were susceptible to hypoxia-induced damage, all of the pharmacological data was calculated for this region alone.
Table 1 represents the quantification of the percentage area of the CA1 pyramidal cell layer in which PI fluorescence was detectable 24 hours after 3 hours of hypoxia (% Damage CA1). Data from all of the cultures exposed to hypoxia alone were pooled (control hypoxia). The percentage neuroprotection was calculated as the (((% damage control hypoxia-% damage drug treated)/% damage control hypoxia) 100). Data are expressed as the mean±sem, n=number of cultures, *p<0.05, **<0.01, ***p<0.001 vs hypoxia control.

Adult male Wistar rats = assay: Global forebrain ischaemia in vivo; design: species or system Wistar rat; settings: 1 mg/kg 15 minutes prior to 15 minutes global forebrain ischaemia; assessed 24 hours after; vs vehicle
Method: Animals were anaesthetised as described above, and a thermistor inserted into the left temporal muscle for recording of body temperature. A dorsal midline skin incision was made in the neck and using microsurgery, the vertebral arteries were identified and occluded using a monopolar electrode at the level of C 1. The incision was closed, animals allowed to recover from anaesthesia and returned to their cages for 24 hours. After this time, animals were re-anaesthetised and the common carotid arteries (CCAs) exposed. Animals were divided into two groups. Group 1 received 0.25-0.3 ml of a 1 mg/ml solution of L-ArgSp (final dose 1 mg/kg) while group 2 received 0.25-0.3 ml of sterile distilled water. Samples were prepared independently and randomised prior to injection. Animals were injected 15 minutes prior to occlusion of the CCAs with microvascular clips for 15 minutes. After this time, the skin was closed, and animals allowed to recover. After 24 hours animals were terminally anaesthetised and transcardially perfused with 1% paraformaldehyde and the brains removed and processed for histology. A blinded observer determined the number of live and dead neurones in the CA1, CA3 fields of the pyramidal cell layer, and the dentate gyrus granule cell layer from haematoxylin and eosin stained coronal sections.

[3] = test system: anaesthetised male Wistar rats; assay: Blood flow studies (mean arterial blood pressure after intravenous injection); type: in vivo, Wistar rat; settings: for MABP (mmHg): pre-injection 79.9 ± 3.9, four observations
Method: Adult male Wistar rats (250-300 g) were initially anesthetized with 4% halothane and subsequently anaesthesia was maintained with 1.5% halothane mixed in […] in O2. The femoral artery was cannulated for continuous blood pressure recording. The femoral vein was also cannulated to allow injection of the compound. Animals were allowed 15-30 minutes to stabilise and were then injected with 0.25-0.3 ml of a 1 mg/ml solution of L-ArgSp. Following injection of the compound, rats were continuously monitored for 60 minutes. After this time, anaesthesia was terminated and rats allowed to waken. In these studies, measurement was taken of the mean arterial blood pressure (MABP) induced following an intravenous injection of 1 mg/kg L-ArgSp into the femoral vein of anaesthetised male Wistar rats. MABP was calculated immediately prior to injection of L-ArgSp (pre-injection) and 30 seconds and 10 minutes post-injection. Data are presented as mean […] of four observations.

N=C(N)NCCCC(N)C(=O)NCCCNCCCCN [Compound A, N′-L-Arginylspermidine]
PI fluorescence above baseline after incubation without hypoxia [1]: no increase in PI fluorescence above baseline was observed | neuroprotective effect (in words) [2]: complete protection | neuroprotective effect (in words) ([2]; listed as L-ArgSp): completely neuroprotective | neuroprotective effect / reduction of PI fluorescence in CA1 (in words) ([2]; 300 μM added post-hypoxia): significant protective effect | neuroprotective effect / reduction of PI fluorescence in CA1 (in words) ([2]; 300 μM added post-hypoxia, listed as L-ArgSp): significant neuroprotective effect | concentration dependence of the neuroprotective effect ([2]; 0.3-300 μM added immediately post-hypoxia): concentration dependent | EC50 ([2]; Rattus norvegicus, added immediately post-hypoxia, 0.3-300 μM, read-out: EC50 of the neuroprotective effect): 3 to 30 µM | % Damage CA1 ([2]; Table 1, 300 μM added post-hypoxia, 3 h hypoxia, PI at 24 h, control hypoxia 35.6 ± 1.43, mean±sem): 9.9 ± 3.5*** % | % Protection ([2]; Table 1, 300 μM added post-hypoxia, vs control hypoxia): > 70% | % Protection ([2]; Table 1, 300 μM added post-hypoxia, vs control hypoxia, listed as L-ArgSp): 72.2% | % Damage CA1 ([2]; Table 1, 300 μM added pre-, during and post-hypoxia (pre), 3 h hypoxia, PI at 24 h, control hypoxia 35.6 ± 1.43, mean±sem, listed as L-ArgSp): 0.2±0.02% | % Protection ([2]; Table 1, 300 μM added pre-, during and post-hypoxia (pre), vs control hypoxia): 99.4% | % Protection ([2]; Table 3, 0.3 μM pdp, fresh batch): 15.5% | % Damage CA1 ([2]; Table 3, 0.3 μM pdp, fresh batch, control hypoxia 23.9 ± 2.7): 20.2 ± 8.4% | % Protection ([2]; Table 3, 1 μM pdp, fresh batch): 15.9% | % Damage CA1 ([2]; Table 3, 1 μM pdp, fresh batch, control hypoxia 23.9 ± 2.7): 20.1 ± 8.2% | % Protection ([2]; Table 3, 3 μM pdp, fresh batch): 72.8% | % Damage CA1 ([2]; Table 3, 3 μM pdp, fresh batch, control hypoxia 23.9 ± 2.7): 6.5 ± 3.0** % | % Protection ([2]; Table 3, 10 μM pdp, fresh batch): 63.2% | % Damage CA1 ([2]; Table 3, 10 μM pdp, fresh batch, control hypoxia 23.9 ± 2.7): 8.8 ± 3.9* % | % Protection ([2]; Table 3, 30 μM pdp, fresh batch): 65.9% | % Damage CA1 ([2]; Table 3, 30 μM pdp, fresh batch, control hypoxia 23.9 ± 2.7): 7.3 ± 4.2* % | % Protection ([2]; Table 3, 300 μM pdp, fresh batch): 66.5% | % Damage CA1 ([2]; Table 3, 300 μM pdp, fresh batch, control hypoxia 23.9 ± 2.7): 8.0 ± 3.0** % | % Protection ([2]; Table 7, 300 μM post): 56.3% | % Damage CA1 ([2]; Table 7, 300 μM post, hypoxia control 27.7 ± 3.1): 12.1 ± 3.5** % | neuronal loss in CA1, CA3 and dentate gyrus (in words) (Adult male Wistar rats): neuronal loss was significantly attenuated | effect on body temperature ([3]; 1 mg/kg intravenous): No effect | effect on heart rate ([3]; 1 mg/kg intravenous): No effect | ill effects on the animals following wakening ([3]; 1 mg/kg intravenous): no ill effects | reduction in MABP (significance, in words) ([3]; 1 mg/kg intravenous): not statistically significant | % Charge ([3]; 1 mg/kg intravenous, 30 secs post-injection vs pre-injection): −9.6% | MABP (mmHg) ([3]; 1 mg/kg intravenous, 30 secs post-injection): 72.2 ± 5.1 mmHg | % Charge ([3]; 1 mg/kg intravenous, 10 minutes post-injection vs pre-injection): −0.9% | MABP (mmHg) ([3]; 1 mg/kg intravenous, 10 minutes post-injection): 79.2 ± 6.5 mmHg | blood pressure recordings (in words) ([3]; 1 mg/kg intravenous, 60 minutes after injection): identical to those 10 minutes post-drug administration | long-term behavioural deficits ([3]; 1 mg/kg, five rats recovered for three days): no long-term behavioural deficits have been observed | effect on blood flow compared with FTX (in words) ([3]; rat, in vivo): less adverse effect on blood flow than FTX
